Results reported in patent US5693628A, “11-benzaldoxime-estra-diene derivatives, methods for their production and pharmaceuticals containing these compounds” (priority 1994, dated 1997).

Tests used:
progesterone receptor = target: T1, progesterone receptor (Oryctolagus cuniculus, UniProt P06186); assay: relative molar bonding affinity to progesterone receptor (competitive bonding); type: binding; conditions: progesterone = 100%; uterine cytosol of estradiol-primed rabbit; 3H-ORG 2058, 5 nM; 18 h, 0-4° C.
T1 construct: uterine cytosol of the estradiol-primed rabbit; from tissue; host or cells: uterus (cytosol) of estradiol-primed rabbit
T1 sequence (P06186 1-930): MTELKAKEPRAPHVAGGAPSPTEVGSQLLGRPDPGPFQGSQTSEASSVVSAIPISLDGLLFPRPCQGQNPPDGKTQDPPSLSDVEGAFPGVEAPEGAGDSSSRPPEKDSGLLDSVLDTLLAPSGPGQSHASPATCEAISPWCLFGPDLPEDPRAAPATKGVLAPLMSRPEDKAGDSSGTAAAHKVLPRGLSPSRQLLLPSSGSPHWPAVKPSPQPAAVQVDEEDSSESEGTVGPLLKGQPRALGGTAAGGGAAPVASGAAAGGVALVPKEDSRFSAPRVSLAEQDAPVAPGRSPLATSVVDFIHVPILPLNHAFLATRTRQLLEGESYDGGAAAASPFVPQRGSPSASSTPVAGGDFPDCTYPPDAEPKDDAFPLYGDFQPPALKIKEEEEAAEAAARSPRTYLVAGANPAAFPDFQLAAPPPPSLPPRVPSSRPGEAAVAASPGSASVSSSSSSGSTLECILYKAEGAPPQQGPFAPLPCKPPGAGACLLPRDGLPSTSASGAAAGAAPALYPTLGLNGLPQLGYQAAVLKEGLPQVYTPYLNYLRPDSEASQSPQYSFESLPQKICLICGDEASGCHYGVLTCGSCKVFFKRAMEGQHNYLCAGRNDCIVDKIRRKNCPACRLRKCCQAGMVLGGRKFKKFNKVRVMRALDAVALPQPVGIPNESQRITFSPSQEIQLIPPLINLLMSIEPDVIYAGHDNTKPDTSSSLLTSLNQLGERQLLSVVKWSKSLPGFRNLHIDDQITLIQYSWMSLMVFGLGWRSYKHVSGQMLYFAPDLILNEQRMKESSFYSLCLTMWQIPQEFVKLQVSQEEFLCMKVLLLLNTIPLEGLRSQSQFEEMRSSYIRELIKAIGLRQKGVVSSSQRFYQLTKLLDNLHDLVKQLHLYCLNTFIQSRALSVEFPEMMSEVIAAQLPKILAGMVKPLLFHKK
Description: Measurement of bonding affinity for receptors
Receptor bonding affinity was determined by competitive bonding of a specifically binding ^3 H labelled hormone (tracer) and the compound to be tested to receptors in the cytosol from animal target organs. It was tried to obtain receptor saturation and a balanced reaction. The following incubation conditions were selected:
Progesterone receptor: uterine cytosol of the estradiol-primed rabbit, kept at -30° C. in TED buffer (20 mM Tris/HCl, pH 7.4; 1 mM ethylene diamine tetraacetate, 2 mM dithio threitol) with 250 mM of saccharose.
After an incubation period of 18 hours at 0°-4° C., bonded and free steroid was separated by mixing in active carbon/dextrane (1%/0.1%), centrifuging off and measuring the bonded ^3 H activity in the supernatant.
The IC50 for the compound to be tested and for the reference substance were determined from measurements in series of concentrations.

[1] = system: uterine weight in cyclic guinea pigs; assay: Influence on uterine weight in cyclic guinea pigs; type: in vivo, guinea pig
Text: FIG. 1. is a chart showing a comparison of the influence on uterine weight in cyclic guineau pigs when treated with the antigestagen agents RU 486, a control (the vehicle), and a compound of the present invention, J 867 (as prepared in accordance with Example 1).
FIG. 1 compares the influence of antigestagen treatment of cyclic guinea pigs on uterine weights for J 867 and RU 486.
Treatment of female guinea pigs with antigestagen
Treatment of adult female guinea pigs from day 10 to day 18 of the cycle (autopsy). Administration of the specified doses using subcutaneous osmotic pumps (Type 2 ML1 ALZET). Vehicle: […] propylene glycol/24 hrs.

[2] = system: ZR75/AGP-763 human mammary cell line (CAT induction); assay: Antiglucocorticoid effect: inhibition of dexamethasone-induced CAT in ZR75/AGP-763 cells; type: cell-based; conditions: ZR 75/AGP-763; 10^-7 M dexamethasone; wide range of concentrations
Text: FIG. 2. is a graph showing the antiglucocorticoid effect of J 867 (Example 1) in comparison to RU 486. The graph depicts the inhibition of CAT induction in a human mammary cell line (the ZR75/AGP-763 cell line) which were induced by 10^-7 M dexamethasone. The graph indicates the log molar antagonist concentration in the x-axis versus the maximum CAT induction as a percentage in the y-axis. The results for dexamethasone is shown as dashed lines (- - -), the IC50 is shown in solid line (----), RU 486 is shown as open boxes (.quadrature.), and J 867 is shown with closed boxes (.box-solid.).
FIG. 2 depicts the antiglucocorticoid effect produced by J 867 in the ZR 75/AGP-763 line of human mammary cells compared with that of RU 486.
In this cell line, dexamthasone induces the chloroamphenicol acetyl transferase gene (CAT). This induction is inhibited by antiglucocorticoid substances.
Antiglucocorticoid effect of J867 in the ZR75/AGP-763 line of human mammary cells
The cell culture experiments were carried out in RPMI 1640 added with 10% foetal calf serum (FCS) using an incubator cabinet containing 95% air and 5% CO2 at 37° C. The cells were spread in 60 mm Petri dishes. […] CAT was determined using a Boehringer ELISA according to the instructions for quantitative CAT determination of transfected cells.

## COC[C@]1(OC)CC[C@H]2[C@@H]3CCC4=CC(=O)CCC4=C3[C@@H](c3ccc(C=NO)cc3)C[C@@]21C [Example 1, 11β-[4-(hydroximinomethyl)phenyl]-17β-methoxy-17α-methoxymethyl-estra-4,9-diene-3-on]
Progesterone receptor
  relative molar bonding affinity (RBA) to progesterone receptor: 302%
[1]; 1, 3, and 6 mg/24 hrs, s.c. osmotic pump, day 10 to 18 of cycle
  inhibition of uterine weights of cyclic guinea pigs, all doses: inhibited uterine weights to a statistically significant extent
[1]; doses at which RU 486 increases uterine weights, compared with control animals
  uterine weights in the anovulatorial cycle in guinea pigs: significantly reduced uterine weights
[2]
  inhibition of CAT compared with RU 486: inhibits CAT over a wide range of concentrations to a lesser extent than RU 486
